This assay addresses SARS-CoV-2 Main Protease (SARS-CoV-2) (UniProt P0DTD1).

In the COVID Moonshot data (paper PMC7615835) one finds IC50 data, which are given here for 61 compounds.

One may read the IC50 as the point on the concentration scale where inhibition reaches its midpoint. Lower therefore signals greater potency in that assay. `N#CC1(CS(=O)(=O)N2Cc3ccc(Cl)cc3C(C(=O)Nc3cncc4cc(F)ccc34)C2)CC1` (stereo unspecified) returned an IC50 of 0.222 µM.

In turn, `O=C(Cc1cccc(Cl)c1)Nn1nnc2ccccc21` returned an IC50 of 5.8 µM. As to `O=C(Cc1cc(Cl)cc(Nc2cc(Cl)cc(Cl)c2O)c1)Nc1cncc2ccccc12`, the IC50 is 9.19 µM. Next, `CC1(C(=O)Nc2cncc3ccc(F)cc23)CNS(=O)(=O)c2ccc(Cl)cc21` (stereo unspecified): 0.441 µM; `O=C(Cc1cc(Cl)cc(Nc2cccc(C(F)(F)F)n2)c1)Nc1cncc2ccccc12`: 2.13 µM. `CN(C)c1ncc(C(C(=O)NCCc2cccc(F)c2)N(C(=O)c2cocn2)c2ccc(C(C)(C)C)cc2)cn1` (stereo unspecified) returned an IC50 greater than 99.5 µM. Regarding `CC(C)(C)c1ccc(N(C(=O)c2ncc[nH]2)C(C(=O)NCCc2cccc(F)c2)c2cccnc2)cc1` (stereo unspecified), the IC50 is 5.29 µM.

In turn, `O=C(NCCc1cccc(F)c1)C(c1cccnc1)N(C(=O)c1cnc[nH]1)c1ccc(Cl)cc1` (stereo unspecified) came in with a half-inhibitory concentration (IC50) greater than 99.5 µM. In turn, `O=C(Cc1cc(Cl)cc(NC23CC4CC(CC(O)(C4)C2)C3)c1)Nc1cncc2ccccc12` showed an IC50 of 2.87 µM. Under `CC(C)(C)c1ccc(N(C(=O)c2cc(O)cc(=O)o2)C(C(=O)NCCc2cccc(F)c2)c2cccnc2)cc1` (stereo unspecified) stands greater than 99.5 µM; under `O=C(Cc1ccc(Cl)cc1)Nc1cncc2ccccc12`, 23.7 µM; under `CN(C)c1ccc(N(Cc2ccccc2)C(=O)Cn2nnc3ccccc32)cc1`, 5.05 µM. On to `O=C(CCl)N1CCCN(S(=O)(=O)Cc2ccccc2)CC1`, for which the IC50 is 8.81 µM. Next, `CS(=O)(=O)c1ccc2c(NC(=O)C3CN(CC(=O)NC4CCC4)C(=O)c4ccc(Cl)cc43)cncc2c1` (stereo unspecified): 0.252 µM. Next, `Cc1ccccc1CC(=O)Nc1cncc2ccccc12`: 29.5 µM. Under `O=C(Nc1cncc2ccccc12)c1ccnc2cc(Cl)c(Cl)cc12` stands 28.1 µM; under `CNC(=O)CN1CC(C(=O)Nc2cncc3cccc(C)c23)c2cc(Cl)ccc2C1=O` (stereo unspecified), 0.361 µM; under `CC[C@]1(c2ccc(Nc3cc(Cl)cc(CC(=O)Nc4cncc5ccccc45)c3)cc2)CCC(=O)NC1=O` (stereo in doubt), 1.91 µM. `CNC(=O)CN1CC(C)(C(=O)Nc2cncc3cc(Cl)ccc23)c2cc(Cl)ccc2S1(=O)=O` (stereo unspecified) had an IC50 of 0.393 µM. Against the preceding compound, the IC50 is about 4.9-fold lower. `O=C1O[C@@]2(CCOc3ccc(Cl)cc32)C(=O)N1c1cncc2ccccc12` (stereo in doubt) gave an IC50 greater than 99.5 µM.

`O=C(Cc1cncc2ccccc12)N(CCC1CCCCC1)c1cccc(Cl)c1` gave an IC50 of 2.11 µM. Under `N#Cc1nccn1CCc1cccc(Cl)c1` stands greater than 99.5 µM; under `C=CC(=O)N(c1ccc(C(F)(F)F)cc1)C(C(=O)NCCc1cccc(F)c1)c1cncc(C)c1` (stereo unspecified), 24.3 µM; under `O=C(Nc1cncc2c1CCCC2)C1CNS(=O)(=O)c2ccc(Cl)cc21` (stereo unspecified), 0.452 µM.

As to `O=C(Cc1cccc(Cl)c1)Nc1cncc2cccc(Cl)c12`, the IC50 was 0.594 µM. The IC50 values of the last two compounds are within 1.5-fold of each other.

Compound `O=C(NCCc1cccc(F)c1)C(c1cccnc1)N(Cc1cccnc1)C(=O)c1cnc[nH]1` (stereo unspecified) showed a concentration for half-maximal inhibition (IC50) greater than 99 µM. `O=C(Cc1cc(Cl)cc(Nc2ncc(Br)cc2O)c1)Nc1cncc2ccccc12` displayed an IC50 of 3.23 µM. Next, `CC(C)NC(=O)CN1CC(C(=O)Nc2cncc3cc(S(C)(=O)=O)ccc23)c2cc(Cl)ccc2C1=O` (stereo unspecified): 0.332 µM; `CC(=O)c1ccc(N(C(=O)c2ccco2)C(C(=O)NCCc2cccc(F)c2)c2cccnc2)cc1` (stereo unspecified): 56.3 µM. Turning to `O=C(Cn1nnc2ccccc21)N(Cc1ccccc1)c1ccc(N2CCOCC2)cc1`, the IC50 was found to be 19.8 µM. Next, `CC(C)(C)c1ccc(N(C(=O)c2cocn2)C(C(=O)NCCc2cccc(F)c2)c2cccnc2)cc1` (stereo unspecified): 0.557 µM. Under `Cc1ccncc1C(C(=O)NCCc1cccc(F)c1)N(C(=O)c1ccco1)c1ccc(C(C)(C)C)cc1` (stereo unspecified) stands 0.112 µM; under `COc1ccccc1CN(C(=O)c1cnc[nH]1)C(C(=O)NCCc1cccc(F)c1)c1cccnc1` (stereo unspecified), greater than 99 µM; under `COc1cc(CNc2cc(Cl)cc(CC(=O)Nc3cncc4ccccc34)c2)ccc1O`, 1.88 µM. Under `O=C(c1cc(=O)[nH]c2ccccc12)N1CCN(c2cccc(Cl)c2)CC1` stands 2.16 µM; under `CN(CCO)S(=O)(=O)N1Cc2ccc(Cl)cc2C2(CCN(c3cncc4ccccc34)C2=O)C1` (stereo unspecified), 0.699 µM. `O=C1CC(Oc2cc(Cl)cc(CC(=O)Nn3cnc4ccccc4c3=O)c2)N1` (stereo unspecified): the IC50 is greater than 99.5 µM.

Compound `O=C(Nc1ccc(N(C(=O)c2cocn2)C(C(=O)NCCc2cccc(F)c2)c2cccnc2)cc1)NC1CC1` (stereo unspecified) yielded a half-inhibitory concentration (IC50) greater than 99.5 µM. Under `CC(C)(C)c1ccc(N(C(=O)c2cocn2)C(C(=O)NC2CCOCC2)c2cccnc2)cc1` (stereo unspecified) stands 3.9 µM; under `O=C(Cc1cc(Cl)cc(OC2CC(=O)N2)c1)Nc1cc(=O)[nH]c2ccccc12` (stereo unspecified), 83.3 µM. Next, `CC(C)(C)c1ccc(N(C(=O)c2cc(=O)[nH][nH]2)C(C(=O)NCCc2cccc(F)c2)c2cccnc2)cc1` (stereo unspecified): 39.7 µM; `O=C(CC1(C(=O)Nc2cncc3ccccc23)CCOc2ccc(Cl)cc21)N1CCN(C2CCOC2)CC1` (stereo unspecified): 6.68 µM; `COc1cc(Nc2cc(Cl)cc(CC(=O)Nc3cncc4ccccc34)c2)c(Cl)cc1Cl`: 6.8 µM.

In turn, `COc1ccc(-c2ccccc2S(=O)(=O)N2CCN(C(=O)CCl)CC2)cc1` gave an IC50 of 0.551 µM. Under `O=C(Nc1ccccc1)[C@H]1CN(C(=O)CCl)CCN1S(=O)(=O)c1ccsc1` (stereo in doubt) stands 0.386 µM; under `COc1ccc2cncc(N3CCC4(CN(S(=O)(=O)CC5(C#N)CC5)Cc5ccc(Cl)cc54)C3=O)c2c1` (stereo unspecified), 0.215 µM. Under `O=C(Cn1nnc2ccccc21)N(Cc1ccsc1)c1ccc(N2CCCCC2)cc1` stands 6.56 µM; under `CC(C)(C)c1ccc(N(C(=O)c2scnc2Cl)C(C(=O)NCCc2cccc(F)c2)c2cccnc2)cc1` (stereo unspecified), greater than 99.5 µM; under `CCNC(=O)CN1CC2(CCN(c3cncc4ccccc34)C2=O)c2cc(Cl)ccc2S1(=O)=O` (stereo unspecified), 0.275 µM. For the compound `CC(C)C[C@@H]1CN(C(=O)CCl)CCN1Cc1cccc(Cl)c1` (stereo in doubt), the IC50 was determined as 0.784 µM.

Compound `Cc1ccccc1NC(=O)CC1SC(=O)N(c2ccccc2)C1=O` (stereo unspecified) gave an IC50 of 0.443 µM. Consider `Cc1ccncc1NC(=O)Cc1cc(Cl)cc(NS(N)(=O)=O)c1`, for which the IC50 is 11.3 µM. Under `N#Cc1ccc(Nc2cc(Cl)cc(CC(=O)Nc3cncc4ccccc34)c2)c(I)c1` stands 1.62 µM. In turn, `COc1cc(C)ccc1N(C(=O)c1ccco1)C(C(=O)NCCc1cccc(F)c1)c1cccnc1` (stereo unspecified) showed an IC50 greater than 99.5 µM.

The compound `CC(NCc1cnc2ccccn12)c1nnc2ccccn12` (stereo unspecified) came in with an IC50 greater than 99.5 µM.

`Cc1ccc(S(=O)(=O)N2CCN(C(=O)CCl)CC2)cc1`: the IC50 is 21 µM.

As to `O=C(c1cc(=O)[nH]c2ccccc12)N1CCN(c2cccc(C(F)(F)F)c2)CC1`, the IC50 amounted to 3.8 µM. On to `C=CC(=O)N(c1ccc(C(C)(C)C)cc1)C(C(=O)NCCc1cccc(F)c1)c1cncc(Cl)c1` (stereo unspecified), for which the IC50 was 11.5 µM. For `CN(C)C(=O)CN1Cc2ccc(Cl)cc2C(C(=O)Nc2cncc3ccccc23)C1` (stereo unspecified), the IC50 is 0.896 µM. The compound `CC(C)c1cccc(C(C)C)c1Nc1cc(Cl)cc(CC(=O)Nc2cncc3ccccc23)c1` yielded an IC50 of 1.82 µM. For `O=C(NCCCc1nc(=O)[nH][nH]1)C1(c2ccc(F)cc2F)CCC1`, the half-maximal inhibitory concentration (IC50) is greater than 99.5 µM.
